According to US8835462B2, “Macrocyclic picolinamides as fungicides” (Dow AgroSciences LLC, priority 2012, dated 2014):

Assays:
Phakopsora pachyrhizi = assay: Asian soybean rust (PHAKPA) fungicidal activity; assay type: in vivo; conditions: 25 ppm; for Disease Control PHAKPA 1 DP: 1 Day Protectant; for Disease Control PHAKPA 2 DC: 2 Day Curative
Experimental: Evaluation of Fungicidal Activity: Asian Soybean Rust (Phakopsora Pachyrhizi; Bayer Code […]) Technical grades of materials were dissolved in acetone, which were then mixed with nine volumes of water containing 0.011% Tween 20. The fungicide solutions were applied onto soybean seedlings using an automated booth sprayer to run-off. All sprayed plants were allowed to air dry prior to further handling. Soybean plants (variety Williams 82) were grown in soil-less Metro mix, with one plant per pot. Two weeks old seedlings were used for testing. Plants were inoculated either 2 days prior to or 1 day after fungicide treatments. Plants were incubated for 24 h in a dark dew room at 22° C. and 100% RH then transferred to a growth room at 23° C. for disease to develop. Disease severity was assessed on the sprayed leaves.

Cercospora beticola = assay: Leaf spot of sugar beets (CERCBE) fungicidal activity; assay type: in vivo; conditions: 24 h, 1 Day Protectant, sugar beet, read-out: Disease Control CERCBE 1DP
Experimental: Technical grades of materials were dissolved in acetone, which were then mixed with nine volumes of water containing 110 ppm Triton X-100. The fungicide solutions were applied onto wheat seedlings using an automated booth sprayer to run-off. All sprayed plants were allowed to air dry prior to further handling. Wheat plants (variety Yuma) were grown from seed in a greenhouse in 50% mineral soil/50% soil-less Metro mix until the first leaf was fully emerged, with 7-10 seedlings per pot. These plants were inoculated with an aqueous spore suspension of Septoria tritici either prior to or after fungicide treatments. After inoculation the plants were kept in 100% relative humidity (one day in a dark dew chamber followed by two to three days in a lighted dew chamber at 20° C.) to permit spores to germinate and infect the leaf. The plants were then transferred to a greenhouse set at 20° C. for disease to develop. When disease symptoms were fully expressed on the 1st leaves of untreated plants, infection levels were assessed on a scale of 0 to 100 percent disease severity. Percent disease control was calculated using the ratio of disease severity on treated plants relative to untreated plants. Evaluation of Fungicidal Activity: Leaf Spot of Sugar Beets (Cercospora Beticola; Bayer Code CERCBE) Sugar beet plants (variety HH88) were grown in soil-less Metro mix and trimmed regularly to maintain an uniform plant size prior to test. Plants were inoculated with a spore suspension 24 hr after fungicide treatments. Inoculated plants were kept in a dew chamber at 22° C. for 48 hr then incubated in a greenhouse set at 24° C. under a clear plastic hood with bottom ventilation until disease symptoms were fully expressed. Fungicide formulation, application and disease assessment on the sprayed leaves followed the procedures as described in the Example A.

Cochliobolus sativus = assay: Spot blotch of barley (COCHSA) fungicidal activity; assay type: in vivo; conditions: 100 ppm, 1 Day Protectant
Experimental: Technical grades of materials were dissolved in acetone, which were then mixed with nine volumes of water containing 110 ppm Triton X-100. The fungicide solutions were applied onto wheat seedlings using an automated booth sprayer to run-off. All sprayed plants were allowed to air dry prior to further handling. Wheat plants (variety Yuma) were grown from seed in a greenhouse in 50% mineral soil/50% soil-less Metro mix until the first leaf was fully emerged, with 7-10 seedlings per pot. These plants were inoculated with an aqueous spore suspension of Septoria tritici either prior to or after fungicide treatments. After inoculation the plants were kept in 100% relative humidity (one day in a dark dew chamber followed by two to three days in a lighted dew chamber at 20° C.) to permit spores to germinate and infect the leaf. The plants were then transferred to a greenhouse set at 20° C. for disease to develop. When disease symptoms were fully expressed on the 1st leaves of untreated plants, infection levels were assessed on a scale of 0 to 100 percent disease severity. Percent disease control was calculated using the ratio of disease severity on treated plants relative to untreated plants. Evaluation of Fungicidal Activity: Spot Blotch of Barley (Cochliobolus Sativus; Bayer Code COCHSA) Barley seedlings (variety Harrington) were propagated in soil-less Metro mix, with each pot having 8 to 12 plants, and used for testing when first leaf was fully emerged. Test plants were inoculated with a spore suspension of Cochliobolus sativus 24 hr after fungicide treatments. After inoculation the plants were placed in a dark dew room with 100% RH and temperature of 22° C. for 48 hr. The plants were then kept in a greenhouse set at 24° C. until disease fully developed. Fungicide formulation, application and disease assessment followed the procedures as described in the Example A.

Rhyncosporium secalis = assay: Barley scald (RHYNSE) fungicidal activity; assay type: in vivo; conditions: 100 ppm, 1 Day Protectant
Experimental: Technical grades of materials were dissolved in acetone, which were then mixed with nine volumes of water containing 110 ppm Triton X-100. The fungicide solutions were applied onto wheat seedlings using an automated booth sprayer to run-off. All sprayed plants were allowed to air dry prior to further handling. Wheat plants (variety Yuma) were grown from seed in a greenhouse in 50% mineral soil/50% soil-less Metro mix until the first leaf was fully emerged, with 7-10 seedlings per pot. These plants were inoculated with an aqueous spore suspension of Septoria tritici either prior to or after fungicide treatments. After inoculation the plants were kept in 100% relative humidity (one day in a dark dew chamber followed by two to three days in a lighted dew chamber at 20° C.) to permit spores to germinate and infect the leaf. The plants were then transferred to a greenhouse set at 20° C. for disease to develop. When disease symptoms were fully expressed on the 1st leaves of untreated plants, infection levels were assessed on a scale of 0 to 100 percent disease severity. Percent disease control was calculated using the ratio of disease severity on treated plants relative to untreated plants. Evaluation of Fungicidal Activity: Barley Scald (Rhyncosporium Secalis; Bayer Code […]) Barley seedlings (variety Harrington) were propagated in soil-less Metro mix, with each pot having 8 to 12 plants, and used in the test when first leaf was fully emerged. Test plants were inoculated by an aqueous spore suspension of Rhyncosporium secalis 24 hr after fungicide treatments. After inoculation the plants were kept in dew room at 20° C. with 100% relative humidity for 48 hr. The plants were then transferred to a greenhouse set at 20° C. for disease to develop. Fungicide formulation, application and disease assessment on the sprayed leaves followed the procedures as described in the Example A.

Compound	Disease Control PHAKPA 1 DP (Phakopsora pachyrhizi)	Disease Control PHAKPA 2 DC (Phakopsora pachyrhizi)	pest or weed control at 100 ppm (Cercospora beticola)	also measured
COc1ccnc(C(=O)N[C@H]2COC[C@H](Cc3ccccc3)[C@@H](OCC(C)C)[C@H](C)OC2=O)c1O [Compound 2, N-((3S,7S,8R,9S)-7-benzyl-8-isobutoxy-9-methyl-2-oxo-1,5-dioxonan-3-yl)-3-hydroxy-4-methoxypicolinamide]	A (80-100)	A (80-100)	–	melting point: 126 to 128 °C
COc1ccnc(C(=O)N[C@H]2COC[C@H](Cc3ccccc3)[C@@H](OCC(C)C)[C@H](C)OC2=O)c1OCOC(=O)C(C)C [Compound 3]	A (80-100)	A (80-100)	80 to 100%	melting point: 54 to 58 °C; Disease Control COCHSA 1DP (Cochliobolus sativus): A (80-100)
COc1ccnc(C(=O)N[C@H]2COC[C@H](Cc3ccccc3)[C@@H](OCC(C)C)[C@H](C)OC2=O)c1OCOC(=O)C(C)(C)C [Compound 7]	A (80-100)	A (80-100)	80 to 100%	Disease Control COCHSA 1DP (Cochliobolus sativus): B (More than 0-Less than 80)
COc1ccnc(C(=O)N[C@H]2COC[C@H](Cc3ccccc3)[C@@H](OCC(C)C)[C@H](C)OC2=O)c1OCOC(C)=O [Compound 8, (2-((3S,7S,8R,9S)-7-benzyl-8-isobutoxy-9-methyl-2-oxo-1,5-dioxonan-3-ylcarbamoyl)-4-methoxypyridin-3-yloxy)methyl acetate]	A (80-100)	A (80-100)	80 to 100%	Disease Control COCHSA 1DP (Cochliobolus sativus): B (More than 0-Less than 80); Disease Control RHYNSE 1DP (Rhyncosporium secalis): A (80-100)
COc1ccnc(C(=O)N[C@H]2COC[C@H](Cc3ccccc3)[C@@H](OCC(C)C)[C@H](C)OC2=O)c1OC(C)=O [Compound 9, 2-(((3S,7S,8R,9S)-7-benzyl-8-isobutoxy-9-methyl-2-oxo-1,5-dioxonan-3-yl)carbamoyl)-4-methoxypyridin-3-yl acetate]	A (80-100)	A (80-100)	80 to 100%	Disease Control COCHSA 1DP (Cochliobolus sativus): B (More than 0-Less than 80)
COc1ccnc(C(=O)N[C@H]2COC[C@H](Cc3ccccc3)[C@@H](OCC(C)C)[C@H](C)OC2=O)c1OC(=O)OC(C)C [Compound 10, 2-(((3S,7S,8R,9S)-7-benzyl-8-isobutoxy-9-methyl-2-oxo-1,5-dioxonan-3-yl)carbamoyl)-4-methoxypyridin-3-yl isopropyl carbonate]	A (80-100)	A (80-100)	80 to 100%	Disease Control COCHSA 1DP (Cochliobolus sativus): B (More than 0-Less than 80)
COc1ccnc(C(=O)N[C@H]2COC[C@H](Cc3ccccc3)[C@@H](OCCC(=O)N(C)C)[C@H](C)OC2=O)c1OCOC(C)=O [Compound 15]	–	–	0 to 80%	–
COCCCO[C@@H]1[C@@H](Cc2ccccc2)COC[C@H](NC(=O)c2nccc(OC)c2OCOC(C)=O)C(=O)O[C@H]1C [Compound 16]	–	–	80 to 100%	–
CCCO[C@@H]1[C@@H](Cc2ccccc2)COC[C@H](NC(=O)c2nccc(OC)c2OCOC(C)=O)C(=O)O[C@H]1C [Compound 22]	–	–	80 to 100%	–
COc1ccnc(C(=O)N[C@H]2COC[C@H](Cc3ccccc3)[C@@H](OCCCC(F)(F)F)[C@H](C)OC2=O)c1OCOC(C)=O [Compound 23]	–	–	80 to 100%	–
CCCCCO[C@@H]1[C@@H](Cc2ccccc2)COC[C@H](NC(=O)c2nccc(OC)c2OCOC(C)=O)C(=O)O[C@H]1C [Compound 26]	–	–	80 to 100%	–
COc1ccnc(C(=O)N[C@H]2COC[C@H](Cc3ccccc3)[C@@H](OCCCc3ccccc3)[C@H](C)OC2=O)c1OCOC(C)=O [Compound 34]	–	–	80 to 100%	–
COC(=O)/C=C/O[C@@H]1[C@@H](Cc2ccccc2)COC[C@H](NC(=O)c2nccc(OC)c2OCOC(C)=O)C(=O)O[C@H]1C [Compound 36]	–	–	0 to 80%	–
COc1ccnc(C(=O)N[C@H]2COC[C@H](Cc3ccccc3)[C@@H](OC(=O)c3ccccc3)[C@H](C)OC2=O)c1OCOC(C)=O [Compound 37]	–	–	80 to 100%	–
COc1ccnc(C(=O)N[C@H]2COC[C@H](Cc3ccccc3)[C@@H](OC(=O)C3CC3)[C@H](C)OC2=O)c1OCOC(C)=O [Compound 38]	–	–	80 to 100%	–
COc1ccnc(C(=O)N[C@H]2COC[C@H](Cc3ccccc3)[C@@H](OC)[C@H](C)OC2=O)c1OCOC(C)=O [Compound 39]	–	–	0 to 80%	–
COc1ccnc(C(=O)N[C@H]2COC[C@H](Cc3ccccc3)[C@@H](Oc3ccccc3)[C@H](C)OC2=O)c1OCOC(C)=O [Compound 40]	–	–	80 to 100%	–
COc1ccnc(C(=O)N[C@H]2COC[C@H](Cc3ccccc3)[C@@H](OCC(F)F)[C@H](C)OC2=O)c1OCOC(C)=O [Compound 44]	–	–	0 to 80%	–
COc1ccnc(C(=O)N[C@H]2COC[C@H](Cc3ccccc3)[C@@H](OCCC(C)OC)[C@H](C)OC2=O)c1OCOC(C)=O (stereo partly drawn) [Compound 46]	–	–	80 to 100%	–
COc1ccnc(C(=O)N[C@H]2COC[C@H](Cc3ccccc3)[C@@H](OC3CCCC3)[C@H](C)OC2=O)c1OCOC(C)=O [Compound 106]	–	–	80 to 100%	–
COc1ccnc(C(=O)N[C@H]2COC[C@H](Cc3ccccc3)[C@@H](OC3CCCC3)[C@H](C)OC2=O)c1OC(C)=O [Compound 107]	–	–	80 to 100%	Disease Control RHYNSE 1DP (Rhyncosporium secalis): A (80-100)
COc1ccnc(C(=O)N[C@H]2COC[C@H](Cc3ccccc3)[C@@H](OC3CCCC3)[C@H](C)OC2=O)c1OCOC(=O)C(C)C [Compound 108]	A (80-100)	A (80-100)	80 to 100%	Disease Control RHYNSE 1DP (Rhyncosporium secalis): A (80-100)
